Where “and” joins values, the source holds several entries; their conditions need not be identical. Identical values can stand only once. ± gives the expanded uncertainty stated by the source.
Details: Hot wire method

CCF [fluoroethane]
Liquid
Details	thermal conductivity
233.99 K	0.1496 ± 0.006 W/m/K
234 K	0.1487 ± 0.006 W/m/K
234.01 K	0.1487 ± 0.006 W/m/K
234.32 K	0.1483 ± 0.006 W/m/K and 0.1482 ± 0.006 W/m/K and 0.1492 ± 0.006 W/m/K
234.57 K	0.1496 ± 0.006 W/m/K
234.63 K	0.1492 ± 0.006 W/m/K
234.64 K	0.149 ± 0.006 W/m/K
244.01 K	0.1429 ± 0.0057 W/m/K
244.04 K	0.1429 ± 0.0057 W/m/K and 0.1423 ± 0.0057 W/m/K
244.22 K	0.1424 ± 0.0057 W/m/K
244.25 K	0.143 ± 0.0057 W/m/K
244.26 K	0.1433 ± 0.0058 W/m/K
244.5 K	0.1426 ± 0.0057 W/m/K
244.51 K	0.142 ± 0.0057 W/m/K
244.54 K	0.1426 ± 0.0057 W/m/K
253.79 K	0.1362 ± 0.0055 W/m/K and 0.1361 ± 0.0055 W/m/K
253.8 K	0.1362 ± 0.0055 W/m/K
254.08 K	0.1364 ± 0.0055 W/m/K
254.09 K	0.1368 ± 0.0055 W/m/K and 0.1363 ± 0.0055 W/m/K
254.12 K	0.1357 ± 0.0054 W/m/K
254.14 K	0.135 ± 0.0054 W/m/K
254.15 K	0.1346 ± 0.0054 W/m/K
254.36 K	0.1352 ± 0.0054 W/m/K
254.37 K	0.1358 ± 0.0055 W/m/K
254.41 K	0.1355 ± 0.0054 W/m/K
254.71 K	0.1359 ± 0.0055 W/m/K
254.75 K	0.1355 ± 0.0054 W/m/K
254.79 K	0.1354 ± 0.0054 W/m/K
263.94 K	0.1286 ± 0.0052 W/m/K
263.95 K	0.128 ± 0.0052 W/m/K and 0.1283 ± 0.0052 W/m/K
264.16 K	0.1283 ± 0.0052 W/m/K
264.17 K	0.1287 ± 0.0052 W/m/K
264.19 K	0.1288 ± 0.0052 W/m/K
264.43 K	0.1285 ± 0.0052 W/m/K
264.51 K	0.1293 ± 0.0052 W/m/K and 0.129 ± 0.0052 W/m/K
274.37 K	0.1215 ± 0.0049 W/m/K
274.39 K	0.1214 ± 0.0049 W/m/K
274.4 K	0.1213 ± 0.0049 W/m/K
274.62 K	0.1218 ± 0.0049 W/m/K
274.64 K	0.1224 ± 0.0049 W/m/K
274.66 K	0.122 ± 0.0049 W/m/K
274.95 K	0.1224 ± 0.0049 W/m/K
274.97 K	0.1224 ± 0.0049 W/m/K
274.98 K	0.1226 ± 0.0049 W/m/K
284.17 K	0.1146 ± 0.0046 W/m/K
284.22 K	0.1146 ± 0.0046 W/m/K
284.23 K	0.1153 ± 0.0046 W/m/K
284.43 K	0.1154 ± 0.0046 W/m/K
284.46 K	0.1155 ± 0.0046 W/m/K
284.47 K	0.1152 ± 0.0046 W/m/K
284.78 K	0.1163 ± 0.0047 W/m/K
284.8 K	0.1164 ± 0.0047 W/m/K
284.81 K	0.1162 ± 0.0047 W/m/K
294.43 K	0.1097 ± 0.0044 W/m/K
294.59 K	0.1098 ± 0.0044 W/m/K
294.63 K	0.1109 ± 0.0045 W/m/K and 0.1095 ± 0.0044 W/m/K
294.64 K	0.1105 ± 0.0044 W/m/K
294.65 K	0.1103 ± 0.0044 W/m/K
294.7 K	0.1103 ± 0.0044 W/m/K
294.89 K	0.1094 ± 0.0044 W/m/K
294.9 K	0.1096 ± 0.0044 W/m/K
294.91 K	0.1093 ± 0.0044 W/m/K
294.94 K	0.1112 ± 0.0045 W/m/K and 0.1104 ± 0.0044 W/m/K
294.95 K	0.111 ± 0.0045 W/m/K
295.22 K	0.11 ± 0.0044 W/m/K and 0.1098 ± 0.0044 W/m/K
304.39 K	0.1056 ± 0.0043 W/m/K
304.4 K	0.1056 ± 0.0043 W/m/K
304.41 K	0.1057 ± 0.0043 W/m/K
304.67 K	0.1054 ± 0.0042 W/m/K
304.68 K	0.1056 ± 0.0043 W/m/K and 0.1052 ± 0.0042 W/m/K
305.07 K	0.1055 ± 0.0042 W/m/K
305.19 K	0.1057 ± 0.0043 W/m/K and 0.1058 ± 0.0043 W/m/K
314.36 K	0.1007 ± 0.004 W/m/K and 0.1002 ± 0.004 W/m/K
314.38 K	0.1003 ± 0.004 W/m/K
314.4 K	0.1003 ± 0.004 W/m/K and 0.1012 ± 0.0041 W/m/K
314.46 K	0.1013 ± 0.0041 W/m/K
314.68 K	0.1009 ± 0.0041 W/m/K
314.69 K	0.1008 ± 0.004 W/m/K
314.7 K	0.1003 ± 0.004 W/m/K
314.71 K	0.1011 ± 0.0041 W/m/K and 0.1008 ± 0.004 W/m/K
314.72 K	0.1006 ± 0.004 W/m/K
315.05 K	0.1008 ± 0.004 W/m/K
315.06 K	0.1007 ± 0.004 W/m/K
315.07 K	0.1005 ± 0.004 W/m/K and 0.101 ± 0.0041 W/m/K and 0.1008 ± 0.004 W/m/K
315.08 K	0.1002 ± 0.004 W/m/K
324.64 K	0.09597 ± 0.0039 W/m/K and 0.09452 ± 0.0038 W/m/K
324.66 K	0.09557 ± 0.0038 W/m/K
324.85 K	0.09515 ± 0.0038 W/m/K
324.86 K	0.09533 ± 0.0038 W/m/K
324.87 K	0.09498 ± 0.0038 W/m/K
325.28 K	0.09515 ± 0.0038 W/m/K
325.29 K	0.09565 ± 0.0039 W/m/K
325.3 K	0.09512 ± 0.0038 W/m/K

Gas
Details	thermal conductivity [W/m/K]
236.45 K, 86.1 kPa	0.00838 ± 0.00053
244.29 K, 84.5 kPa	0.00938 ± 0.00059
245.47 K, 132.2 kPa	0.00931 ± 0.00058
246.92 K, 132.2 kPa	0.00972 ± 0.00061
248.24 K, 132.2 kPa	0.00989 ± 0.00062
248.83 K, 84.5 kPa	0.00985 ± 0.00062
254.05 K, 84.5 kPa	0.01031 ± 0.00064
255.52 K, 201.2 kPa	0.01058 ± 0.00066
260.98 K, 132.4 kPa	0.01112 ± 0.00069
265.31 K, 286.1 kPa	0.01142 ± 0.00071
266.46 K, 286.1 kPa	0.01169 ± 0.00073
275.33 K, 370.8 kPa	0.01266 ± 0.00079
276 K, 139.9 kPa	0.01306 ± 0.00081
276.13 K, 370.8 kPa	0.01296 ± 0.00081
277.34 K, 370.8 kPa	0.01294 ± 0.0008
278.06 K, 139.9 kPa	0.01337 ± 0.00083
278.85 K, 139.9 kPa	0.01329 ± 0.00083
286.13 K, 481.4 kPa	0.01426 ± 0.00088
286.26 K, 271.3 kPa	0.01438 ± 0.00089
287.56 K, 578.8 kPa	0.01402 ± 0.00087
287.6 K, 481.4 kPa	0.01425 ± 0.00088
287.72 K, 271.3 kPa	0.01452 ± 0.0009
288.9 K, 481.4 kPa	0.01448 ± 0.0009
289.14 K, 271.3 kPa	0.0144 ± 0.00089
295.76 K, 779.2 kPa	0.01526 ± 0.00094
295.78 K, 690.7 kPa	0.0151 ± 0.00094
295.97 K, 520.7 kPa	0.01551 ± 0.00096
296.2 K, 275.3 kPa	0.01553 ± 0.00096
297.07 K, 690.7 kPa	0.01526 ± 0.00094
297.24 K, 520.7 kPa	0.01534 ± 0.00095
297.64 K, 275.3 kPa	0.01544 ± 0.00096
298.46 K, 520.7 kPa	0.01532 ± 0.00095
299.03 K, 275.3 kPa	0.01558 ± 0.00096
305.63 K, 712.7 kPa	0.01677 ± 0.001
305.93 K, 916.4 kPa	0.0163 ± 0.001
306.16 K, 227 kPa	0.01673 ± 0.001
306.42 K, 1035 kPa	0.01653 ± 0.001
306.59 K, 712.7 kPa	0.01627 ± 0.001
306.71 K, 504.3 kPa	0.01683 ± 0.001
306.93 K, 916.4 kPa	0.01663 ± 0.001
306.93 K, 1035 kPa	0.01725 ± 0.0011
306.97 K, 227 kPa	0.01654 ± 0.001
307.36 K, 1035 kPa	0.01661 ± 0.001
307.57 K, 504.3 kPa	0.01663 ± 0.001
307.89 K, 227 kPa	0.01643 ± 0.001
315.53 K, 1227.4 kPa	0.01838 ± 0.0011
315.63 K, 1202.4 kPa	0.01779 ± 0.0011
315.79 K, 316.7 kPa	0.01783 ± 0.0011
315.81 K, 1005.9 kPa	0.01828 ± 0.0011
315.87 K, 807.4 kPa	0.01738 ± 0.0011
316.01 K, 1341.3 kPa	0.01815 ± 0.0011
316.27 K, 1202.4 kPa	0.01803 ± 0.0011
316.4 K, 1005.9 kPa	0.01789 ± 0.0011
316.4 K, 1341.3 kPa	0.01835 ± 0.0011
316.53 K, 1162.6 kPa	0.01796 ± 0.0011
316.59 K, 807.4 kPa	0.01737 ± 0.0011
316.83 K, 613.8 kPa	0.01747 ± 0.0011
316.94 K, 1202.4 kPa	0.0181 ± 0.0011
317.06 K, 1341.3 kPa	0.01801 ± 0.0011
317.12 K, 1005.9 kPa	0.01811 ± 0.0011
318.31 K, 316.7 kPa	0.01787 ± 0.0011
321.99 K, 1292.4 kPa	0.01904 ± 0.0012
322.07 K, 1292.4 kPa	0.01921 ± 0.0012
322.37 K, 797.5 kPa	0.01858 ± 0.0011
322.59 K, 797.5 kPa	0.01847 ± 0.0011
323.36 K, 797.5 kPa	0.01857 ± 0.0011
324.32 K, 1700.6 kPa	0.01997 ± 0.0012
324.97 K, 1700.6 kPa	0.0202 ± 0.0013
325.27 K, 1362.6 kPa	0.01957 ± 0.0012
325.45 K, 1700.6 kPa	0.02011 ± 0.0012
326.1 K, 1362.6 kPa	0.01993 ± 0.0012
326.61 K, 1095.3 kPa	0.0197 ± 0.0012
326.64 K, 968 kPa	0.01935 ± 0.0012
326.71 K, 798.3 kPa	0.01946 ± 0.0012
326.98 K, 999.2 kPa	0.01933 ± 0.0012

— the NIST ThermoML archive (doi:10.1016/j.fluid.2014.04.038)
